Test systems include CCRF-CEM leukemia; HCC-2998 colon; IGROV1 ovarian; NCI-H23 lung; OVCAR-3 ovarian; SNB-19 CNS; U251 CNS; HS 578T breast; MDA-MB-435.
Common to all, as to experiment: NCI anticancer screen, dose series, 48 h

Structures are written as SMILES.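 Cultured in 96-well plates, cells were exposed to test compound for 48 hours across five concentrations. The concentration for 50% growth inhibition is given as GI50. TGI denotes the concentration required for complete inhibition of growth.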

Regarding `O=[N+]([O-])c1ccc(N2N=C(c3ccc(NCc4nc5ccccc5[nH]4)cc3)CC2c2ccco2)cc1` (configuration not stated), the TGI is > 100 µM with CCRF-CEM leukemia; 94.1 µM in the assay with HCC-2998 colon; > 100 µM with IGROV1 ovarian; 55.9 µM in the assay on NCI-H23 lung; 80.2 µM in the assay with OVCAR-3 ovarian; > 100 µM in the assay with SNB-19 CNS. For the same molecule, the TGI in the assay with U251 CNS is > 100 µM.
For the molecule `Cc1ccc(NC(=O)CSc2nnc(-c3ccc(N=Cc4ccc(Cl)cc4)cc3)o2)cc1`, the TGI in the assay with CCRF-CEM leukemia, with NCI-H23 lung, in the assay with SNB-19 CNS and in the assay on U251 CNS was > 100 µM each time.
Consider `CC(C)N(C(=O)C12C3C4C1(I)C1C2C3(I)C41C(=O)N(C(C)C)C(C)C)C(C)C` (configuration not stated), for which the TGI in the assay with CCRF-CEM leukemia is > 61.2 µM; with HCC-2998 colon, > 100 µM; in the assay on IGROV1 ovarian it was > 100 µM; in the assay on NCI-H23 lung it was > 100 µM; in the assay on OVCAR-3 ovarian it was > 100 µM; with SNB-19 CNS it was > 100 µM. Moreover, in the assay with U251 CNS, the TGI is > 100 µM.
Take `Cc1c(/C=N/NC(=O)c2ccc(Cl)cc2)c(=O)n(-c2ccccc2)n1C`: the TGI with CCRF-CEM leukemia, in the assay with HCC-2998 colon, in the assay with IGROV1 ovarian, with NCI-H23 lung, in the assay with OVCAR-3 ovarian and with SNB-19 CNS was > 100 µM in each case. The TGI with U251 CNS was > 100 µM.
Consider `O=S(=O)(c1ccccc1)C1CN2OC1(S(=O)(=O)c1ccccc1)CC2c1ccc(Br)cc1` (configuration not stated), for which the TGI in the assay with CCRF-CEM leukemia, in the assay on HCC-2998 colon, in the assay on IGROV1 ovarian, in the assay on NCI-H23 lung, in the assay on OVCAR-3 ovarian and in the assay on SNB-19 CNS was > 100 µM each time. In addition, the TGI in the assay on U251 CNS is > 100 µM.
With `COc1c[c]([Hg][O]C(C)=O)c(OC)c(NC(=O)CC(C)=O)[c]1[Hg][O]C(C)=O`, the GI50 with CCRF-CEM leukemia was 1.75 µM; in the assay with HCC-2998 colon it was 15.8 µM; in the assay with IGROV1 ovarian it was 11 µM; with NCI-H23 lung, 11.6 µM; in the assay on SNB-19 CNS it was 5.56 µM; with U251 CNS it was 12.6 µM. The TGI with CCRF-CEM leukemia was 5.43 µM; in the assay with HCC-2998 colon, 30.1 µM; with IGROV1 ovarian it was 23.9 µM; with NCI-H23 lung it was 17.9 µM; in the assay on OVCAR-3 ovarian it was > 21.1 µM; with SNB-19 CNS it was 12.3 µM. Further, the TGI in the assay on U251 CNS turned out to be 27.8 µM.
As to `Cc1nc([N+](=O)[O-])cn1CC(=N)N`, the TGI in the assay on CCRF-CEM leukemia, in the assay on HCC-2998 colon, in the assay on IGROV1 ovarian, with NCI-H23 lung, in the assay on OVCAR-3 ovarian and in the assay on SNB-19 CNS was > 100 µM in each case. Moreover, in the assay on U251 CNS, the TGI was > 100 µM.
As for `Cc1ccc(S(=O)(=O)c2ccc(N)cc2)cc1`, the TGI with CCRF-CEM leukemia, with HCC-2998 colon, with IGROV1 ovarian, with NCI-H23 lung, in the assay with OVCAR-3 ovarian and in the assay on U251 CNS was > 100 µM in each case.
As for `Cc1cc(C)nc(NS(=O)(=O)c2ccc(NC(=O)c3cccc4c(Nc5ccc(S(N)(=O)=O)cc5)c5ccccc5nc34)cc2)n1`, the TGI is > 25.1 µM in the assay with CCRF-CEM leukemia; 36.1 µM with HCC-2998 colon; 28.4 µM in the assay with IGROV1 ovarian; > 100 µM in the assay with NCI-H23 lung; 27.6 µM with OVCAR-3 ovarian; > 100 µM in the assay on SNB-19 CNS. The TGI in the assay on U251 CNS is > 71.2 µM.
For the molecule `C/C(CC(=O)Nc1cccc(Cl)c1C)=N\NC(=O)c1ccncc1`, the TGI with CCRF-CEM leukemia, in the assay with HCC-2998 colon, in the assay on IGROV1 ovarian, with NCI-H23 lung, in the assay on OVCAR-3 ovarian and in the assay with U251 CNS was > 100 µM throughout.
Consider `CCn1c(=O)c2c(=O)c3c4c(oc3oc2c2ccccc21)C(=O)c1ccccc1C4=O`, for which the GI50 with CCRF-CEM leukemia is 1.18 µM; in the assay on HCC-2998 colon it was > 100 µM; in the assay with HS 578T breast, 19.2 µM; in the assay on IGROV1 ovarian, > 50.1 µM; in the assay with MDA-MB-435 it was > 100 µM; in the assay on NCI-H23 lung, > 48.9 µM. Also, the GI50 is 0.627 µM in the assay on OVCAR-3 ovarian, > 57.7 µM in the assay with SNB-19 CNS and > 27.1 µM in the assay with U251 CNS. The TGI with CCRF-CEM leukemia, in the assay with HCC-2998 colon, in the assay on HS 578T breast, in the assay on IGROV1 ovarian, with MDA-MB-435 and in the assay on NCI-H23 lung was > 100 µM each time. Besides, the TGI with OVCAR-3 ovarian is 4.51 µM; in the assay on SNB-19 CNS, > 100 µM; with U251 CNS, > 100 µM.
For `COC(=O)/C=C/c1c(CC=C(C)C)ncn1C`, the TGI was > 100 µM in the assay on CCRF-CEM leukemia; > 100 µM in the assay with HCC-2998 colon; > 100 µM with IGROV1 ovarian; > 100 µM with NCI-H23 lung; 59 µM in the assay on OVCAR-3 ovarian; > 100 µM in the assay with SNB-19 CNS. The TGI in the assay with U251 CNS is > 67.1 µM.
Regarding `CCCN1CN(C(C(=O)N[C@@H]2C(=O)N3C2SC(C)(C)C3C(=O)O)c2ccc(O)cc2)CSC1=S` (some centres not stated), the TGI with CCRF-CEM leukemia was > 100 µM; in the assay with IGROV1 ovarian, > 100 µM; in the assay with NCI-H23 lung it was > 100 µM; in the assay on OVCAR-3 ovarian, 72.6 µM; in the assay with SNB-19 CNS, > 100 µM; in the assay with U251 CNS it was > 100 µM.
`COc1cc(C=O)c(-c2cc(OC)c(OC)cc2C=O)cc1OC`: the TGI with CCRF-CEM leukemia, in the assay with HCC-2998 colon, in the assay on IGROV1 ovarian, in the assay with NCI-H23 lung, with OVCAR-3 ovarian and with SNB-19 CNS was > 100 µM each time. The TGI with U251 CNS is > 100 µM.
On to `CN[C@@H](C)[C@@H](NC)c1ccccc1`, for which the TGI in the assay on CCRF-CEM leukemia was > 100 µM; in the assay with HCC-2998 colon it was > 100 µM; in the assay with IGROV1 ovarian it was > 100 µM; in the assay on NCI-H23 lung it was > 100 µM; with OVCAR-3 ovarian, > 100 µM; in the assay with U251 CNS it was 2.9 µM.
For the molecule `O=C1OCC2C1C1c3ccccc3C(O)c3ccccc3C21` (configuration not stated), the TGI in the assay on CCRF-CEM leukemia, in the assay with HCC-2998 colon, in the assay on IGROV1 ovarian, in the assay with NCI-H23 lung, with OVCAR-3 ovarian and in the assay with U251 CNS was > 100 µM in each case.
Consider `O=C(/C=C/c1ccccc1Cl)NC1C=Nc2ccc([N+](=O)[O-])cc2NC1` (configuration not stated), for which the TGI in the assay on CCRF-CEM leukemia was 84.8 µM; with HCC-2998 colon, > 100 µM; in the assay on IGROV1 ovarian, > 100 µM; in the assay with OVCAR-3 ovarian it was > 100 µM; in the assay with SNB-19 CNS, > 100 µM; in the assay on U251 CNS it was > 100 µM.

These data come from PubChem BioAssay (NCI).
